Data reported in PMC8491401, “Phytochemical analysis, antioxidant and in vitro β-galactosidase inhibition activities of Juniperus phoenicea and Calicotome villosa methanolic extracts” (BMC Chemistry, 2021).
Like-named read-outs stand apart in the source and are kept apart here.

Columns and labels:
[1] = target: T1, β-Galactosidase from Aspergillus oryzae (Aspergillus oryzae, UniProt Q2UCU3); test: ONPG hydrolysis, absorbance at […] nm; assay type: biochemical
T1 construct: gene lacA; commercial enzyme from Sigma-Aldrich, secreted fungal enzyme; construct details not given
T1 sequence (Q2UCU3 19-1005): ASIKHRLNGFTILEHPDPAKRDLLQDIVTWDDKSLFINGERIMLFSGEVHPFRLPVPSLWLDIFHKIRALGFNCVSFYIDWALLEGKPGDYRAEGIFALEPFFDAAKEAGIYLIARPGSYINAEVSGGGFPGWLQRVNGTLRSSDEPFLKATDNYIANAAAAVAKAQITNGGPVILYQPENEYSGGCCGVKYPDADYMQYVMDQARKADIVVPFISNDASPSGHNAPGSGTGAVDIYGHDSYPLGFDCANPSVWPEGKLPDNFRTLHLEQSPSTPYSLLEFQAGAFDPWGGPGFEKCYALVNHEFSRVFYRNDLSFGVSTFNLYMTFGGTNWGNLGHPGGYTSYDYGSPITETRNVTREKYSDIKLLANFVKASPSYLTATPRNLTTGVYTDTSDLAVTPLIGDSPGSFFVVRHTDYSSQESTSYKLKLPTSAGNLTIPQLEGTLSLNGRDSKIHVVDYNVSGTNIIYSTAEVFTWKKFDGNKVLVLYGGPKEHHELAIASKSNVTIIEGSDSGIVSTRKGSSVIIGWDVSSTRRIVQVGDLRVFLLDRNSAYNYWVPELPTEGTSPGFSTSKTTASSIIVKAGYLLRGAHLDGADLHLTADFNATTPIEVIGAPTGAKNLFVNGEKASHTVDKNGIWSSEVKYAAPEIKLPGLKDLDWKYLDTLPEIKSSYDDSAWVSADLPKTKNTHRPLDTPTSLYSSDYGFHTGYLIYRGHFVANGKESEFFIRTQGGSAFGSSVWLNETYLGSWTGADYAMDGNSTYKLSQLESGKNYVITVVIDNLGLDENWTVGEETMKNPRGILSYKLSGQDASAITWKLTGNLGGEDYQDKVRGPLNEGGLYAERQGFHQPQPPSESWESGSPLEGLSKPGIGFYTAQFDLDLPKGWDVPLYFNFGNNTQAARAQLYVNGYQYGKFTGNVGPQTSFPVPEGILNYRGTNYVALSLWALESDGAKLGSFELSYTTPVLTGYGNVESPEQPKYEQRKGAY

[2] = target: T1, β-Galactosidase from Aspergillus oryzae; test: Lineweaver-Burk, ONPG hydrolysis; assay type: biochemical; conditions: pH 4.5, 30 °C, mixed, read-out: Ki (mg/ml) (converted)
Excerpt: Lineweaver-Burk, ONPG hydrolysis on β-Galactosidase from Aspergillus oryzae

[3] = substrate: O=[N+]([O-])c1ccccc1O[C@@H]1O[C@H](CO)[C@H](O)[C@H](O)[C@H]1O; test: Lineweaver-Burk, ONPG hydrolysis; assay type: biochemical, Aspergillus oryzae; conditions: pH 4.5, 30 °C, no inhibitor
Excerpt: Lineweaver-Burk, ONPG hydrolysis on β-Galactosidase from Aspergillus oryzae | Km and Vmax were obtained by a typical double reciprocal Lineweaver Burk plot

Q: For C[C@@H]1O[C@@H](OC[C@H]2O[C@@H](Oc3c(-c4ccc(O)c(O)c4)oc4cc(O)cc(O)c4c3=O)[C@H](O)[C@@H](O)[C@@H]2O)[C@H](O)[C@H](O)[C@H]1O [Rutin], which IC50 [1] is on record?
A: 0.123 mM

Q: Which results are given for OC[C@H]1OC(O)[C@H](O)[C@@H](O)[C@H]1O (stereo partly shown) [Galactose]?
A: IC50 ([1]; ONPG 20 µmol in 4 ml, 0.1 M citrate-phosphate pH 4.5, 30 °C, mixed): 3.33 mM; Ki [2]: 10.4 mM

B1: β-Galactosidase from Aspergillus oryzae (Aspergillus oryzae RIB40) (protein)
chain: T1 sequence (Q2UCU3 19-1005)
notes: commercial enzyme from Sigma-Aldrich, secreted fungal enzyme; construct details not given
Q: For B1, which Km [3] is on record?
A: 1310 ± 91 µM
